Assay results reported in patent US6740670B2, “Thiazolidine derivatives and its use as antifungal agent” (Oxford Glycosciences (UK) Ltd., priority 2000, dated 2004).

Columns and labels:
[1] = target: T1, Candida albicans PMT-1 enzyme (Candida albicans, UniProt O74189); assay: PMT-1 assay; type: biochemical; conditions: Candida albicans membrane protein, peptide DYATAV, dolicholphospho-[3H]-mannose, 60 minutes at 25° C., pH 8.0; read-out: PMT-1 Inhibition (IC50)
T1 construct: 25 μg of Candida albicans membrane protein; endogenous in cells
T1 sequence (O74189 1-877): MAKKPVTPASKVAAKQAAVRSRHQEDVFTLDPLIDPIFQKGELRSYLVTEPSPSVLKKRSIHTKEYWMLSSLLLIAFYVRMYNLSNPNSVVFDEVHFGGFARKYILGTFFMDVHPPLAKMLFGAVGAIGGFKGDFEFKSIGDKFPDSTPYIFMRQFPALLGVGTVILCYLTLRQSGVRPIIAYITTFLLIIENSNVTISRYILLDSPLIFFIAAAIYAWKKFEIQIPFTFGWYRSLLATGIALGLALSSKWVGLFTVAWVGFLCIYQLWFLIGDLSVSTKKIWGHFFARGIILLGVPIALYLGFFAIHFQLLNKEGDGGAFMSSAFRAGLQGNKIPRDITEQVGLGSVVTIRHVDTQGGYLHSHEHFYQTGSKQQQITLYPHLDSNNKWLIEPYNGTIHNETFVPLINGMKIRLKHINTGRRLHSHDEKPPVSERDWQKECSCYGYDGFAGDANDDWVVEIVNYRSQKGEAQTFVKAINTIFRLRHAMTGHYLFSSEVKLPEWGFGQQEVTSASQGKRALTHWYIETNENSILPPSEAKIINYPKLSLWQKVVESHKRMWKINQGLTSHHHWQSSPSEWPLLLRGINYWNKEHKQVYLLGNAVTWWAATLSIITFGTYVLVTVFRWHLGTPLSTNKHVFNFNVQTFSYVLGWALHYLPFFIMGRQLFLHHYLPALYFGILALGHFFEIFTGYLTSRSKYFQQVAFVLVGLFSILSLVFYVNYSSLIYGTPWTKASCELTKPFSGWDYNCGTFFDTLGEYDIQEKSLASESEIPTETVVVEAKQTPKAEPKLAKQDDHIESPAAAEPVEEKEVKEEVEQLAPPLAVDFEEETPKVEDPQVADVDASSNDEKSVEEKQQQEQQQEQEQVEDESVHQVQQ
Description: The assay method is based upon the transfer of a radiolabelled mannose moiety from dolicholphosphomannose onto a threonine hydroxyl residue in a short peptide, as catalysed by the Candida albicans PMT-1 enzyme. Dolicholphospho-[^3H]-mannose is synthesised enzymatically from GDP-[^3H]-mannose and purified by chloroform: methanol extraction.
100000 Dpm of the generated substrate is incubated with 400 μg phosphatidylcholine, 25 μg of peptide (DYATAV) and 25 μg of Candida albicans membrane protein in a final volume of 50 μl in 100 mM Tris/1 mM MgCl2 buffer, pH 8.0. After 60 minutes at 25° C., the reaction is stopped with 50 μl of methanol. The unreacted radiolabel is removed by the addition of 150 μl of 0.4 g/ml octadecyl-functionalised silica (C18) in methanol. The C18 material is removed by centrifugation and the activity transferred to the peptide is counted in the supernatant.

[2] = test system: Candida albicans (strain SC5314); assay: G418 sensitivity assay; type: cell-based; conditions: G418 100 μg/ml, overnight at 37° C., OD600 nm, concentration giving 50% reduction in cell growth relative to culture with G418 alone
Description: This assay is based upon the observed increased sensitivity of the pmt1−/− Candida strain to Geneticin (G418) (6). 100 μl of a 0.1OD600 nm culture of Candida albicans (strain SC5314) is placed into a 96 well plate in the presence or absence of varying concentrations of test compound. The compounds are initially dissolved in DMSO and added to the cultures at a final DMSO concentration of 1%. G418 is added to a final concentration of 100 μg/ml. In the absence of PMT1 inhibition, this concentration of G418 has no effect on the proliferation of the organism. The cultures are grown overnight at 37° C. and cell density is then estimated by an OD600 nm measurement. The effect of the test compound is calculated as the concentration that gives a 50% reduction in cell growth relative to the culture with G418 alone.

IC50 [1]	IC50 [2]	melting point	Compound
2500 nM	1500 nM	–	CCCCCN(CCCCC)C(=O)c1cc(/C=C2\SC(=S)N(CC(=O)O)C2=O)ccc1OCc1ccccc1 [Example 34, 5-[[[3-(N,N-Dipentylamino)carbonyl-4-(phenylmethoxy)]-phenyl]methylene]-4-oxo-2-thioxo-3-thiazolidineacetic acid]
600 nM	650 nM	204 to 209 °C	C[C@@H](c1ccccc1)N(Cc1ccccc1)C(=O)c1cc(/C=C2\SC(=S)N(CC(=O)O)C2=O)ccc1OCc1ccccc1 [Example 35, 5-[[[3-((S)-N-Benzyl-N-alpha-methylbenzylamino)carbonyl-4-(phenyl-methoxy)]-phenyl]methylene]-4-oxo-2-thioxo-3-thiazolidineacetic acid]
700 nM	700 nM	–	CCCCCN(CCCCC)C(=O)c1cc(/C=C2\SC(=S)N(CC(=O)O)C2=O)ccc1OCc1ccc(F)cc1F [Example 49, 5-[[[3-(N,N-Dipentylamino)carbonyl-4-[(2,4-difluorophenyl)-methoxy]]phenyl]methylene]-4-oxo-2-thioxo-3-thiazolidineacetic acid]
